# Test: Hygroscopicity of oleyl phosphocholine (water absorption)
# Format: physicochemical
# Details: exposed to 90% RH at 25° C.
# Experimental: The development of solid dosage formulations of oleyl phosphocholine, and specifically the development of tablets, is complicated by the low melting point (56.3° C.), high hygroscopicity (absorbing 41.67 weight percent of water when exposed to 90% RH at 25° C.) and irregular particle size and shape of oleyl phosphocholine. These characteristics make it hard to obtain homogeneous, dry powders for tableting.
structure (smiles),measurement,value
CCCCCCCC/C=C\CCCCCCCCOP(=O)([O-])OCC[N+](C)(C)C [oleyl phosphocholine],hygroscopicity: water absorbed,41.67 weight percent
